# Patent publication US10988508B2, “Synthetic N-acetyl-muramic acid derivatives and uses thereof” (University of Delaware, priority 2015, dated 2021)
# Entries after “also recorded” stand apart in the source; their conditions may differ. Read-outs that look alike come from different tables or passages of the source.
# What was measured:
# [1] = system: E. coli cells with AmgK, MurU and ΔMurQ; experiment: labeling efficiency by flow cytometry (FACS) after click with Cy-5; type: cell-based; conditions: after CuAAC with Cy-5
# E. coli ΔmurQ-KU cells = experiment: in vivo peptidoglycan remodeling and CuAAC fluorophore labeling, visualized by SIM; type: cell-based; conditions: 0.2% (w/v) sugar, fosfomycin 200 μg/mL, IPTG 1 mM, CuAAC with rhodamine or Cy-5
# Nod2 [2] = target: T1, Nod2 (Homo sapiens, UniProt Q9HC29); experiment: Nod2 half-life by cycloheximide chase and western blot in HEK 293T-Nod2myc/Tet-op cells; type: cell-based; set-up: expressed in transfected cells; host or cells: HEK293T; conditions: for stabilization of Nod2 (in words): compared to untreated control
# T1 sequence (Q9HC29 whole entry): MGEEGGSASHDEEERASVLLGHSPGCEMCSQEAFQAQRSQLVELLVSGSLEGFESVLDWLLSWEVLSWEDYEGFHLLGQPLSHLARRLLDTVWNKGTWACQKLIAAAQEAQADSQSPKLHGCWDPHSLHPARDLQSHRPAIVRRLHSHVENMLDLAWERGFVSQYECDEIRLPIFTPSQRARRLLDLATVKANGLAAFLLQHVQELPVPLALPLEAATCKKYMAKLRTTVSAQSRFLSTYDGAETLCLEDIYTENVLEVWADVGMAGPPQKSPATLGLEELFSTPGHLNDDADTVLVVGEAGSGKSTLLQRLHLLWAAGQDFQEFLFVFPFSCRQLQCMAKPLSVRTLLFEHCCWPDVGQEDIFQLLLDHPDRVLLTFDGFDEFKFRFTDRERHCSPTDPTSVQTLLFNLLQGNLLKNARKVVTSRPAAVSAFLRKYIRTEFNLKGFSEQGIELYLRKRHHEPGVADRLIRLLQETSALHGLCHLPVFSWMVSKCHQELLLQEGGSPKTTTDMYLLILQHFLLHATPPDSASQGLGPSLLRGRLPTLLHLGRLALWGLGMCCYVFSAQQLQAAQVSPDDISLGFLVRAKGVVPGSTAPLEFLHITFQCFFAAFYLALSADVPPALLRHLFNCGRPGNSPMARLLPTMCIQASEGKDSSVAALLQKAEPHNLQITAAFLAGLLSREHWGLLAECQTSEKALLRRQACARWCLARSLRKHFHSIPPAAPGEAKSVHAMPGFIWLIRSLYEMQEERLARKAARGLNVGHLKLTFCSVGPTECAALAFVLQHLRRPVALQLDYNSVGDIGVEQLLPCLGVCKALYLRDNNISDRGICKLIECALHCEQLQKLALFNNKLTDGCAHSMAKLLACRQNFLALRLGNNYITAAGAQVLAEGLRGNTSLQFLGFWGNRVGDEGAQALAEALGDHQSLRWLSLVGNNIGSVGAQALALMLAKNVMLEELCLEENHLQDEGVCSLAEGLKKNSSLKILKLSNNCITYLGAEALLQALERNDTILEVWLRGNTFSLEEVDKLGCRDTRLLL
# Method: HEK 293T-Nod2myc/Tet-op cells were incubated with MDP derivatives (compound D2 is shown) or water (Ctrl) and lysates were collected after cycloheximide treatment during the indicated time intervals. Equal amount of lysates were subjected to western blot and probed using rabbit anti-myc antibody. β-actin was used as a loading control.
# Nod2 is a transiently stable protein. It is well-known that ligand binding can affect the stability of a receptor. We considered that the interaction of peptidoglycan derivatives with Nod2 could alter the stability of the protein. In order to determine if ligand interaction changes the half-life of Nod2, we analyzed the naturally occurring MDPs (D2, D9, D1), and a subset of the peptidoglycan derivatives with increased activity (D24, D25) or structural similarity (D53, D16) to D2 or D9. We made use of a tetracycline-induced Nod2 expressing cell line, an excellent match for endogenous Nod2 cell lines, and cycloheximide inhibition of protein synthesis to determine the half-life of Nod2 in the presence of the MDP derivatives. Half-life was determined by first order decay according to literature precedent. […] When Nod2 is not treated with a peptidoglycan derivative, the half-life is 7.1±1.4 hours. […] As compound D1 is the only compound tested that contains an amine, which will be positively charged at cellular pH, we were concerned that cell permeability may be a factor. We analyzed the ability of 6-amino-MDP (18 in Table 4), a MDP derivative that replaces the 6-primary-hydroxy group with an amine.
# Nod2 [3] = target: T1, Nod2; experiment: Nod2-dependent NF-κB luciferase reporter assay in transfected HEK293T cells; conditions: 20 μM; for NF-KB Fold Activation ± SD: 12 h, HEK293T, (+) Nod2 plasmid normalized to (−) Nod2 plasmid
# Nod2 [4] = target: T1, Nod2; set-up: expressed in transfected cells; host or cells: HEK293T; conditions: cited from earlier work
# Nod2 [5] = target: T1, Nod2; experiment: in vitro binding assay of Nod2; set-up: expressed in transfected cells; host or cells: HEK293T
# Excerpt: This could be from either the endogenous Nod2 and/or other targets of the bacterial cell wall ligands.
# mouse Nod2 = target: T2, mouse Nod2 (Mus musculus, UniProt Q8K3Z0); conditions: 200 μM, protein synthesis not inhibited; cited from earlier work
# T2 sequence (Q8K3Z0 1-1020): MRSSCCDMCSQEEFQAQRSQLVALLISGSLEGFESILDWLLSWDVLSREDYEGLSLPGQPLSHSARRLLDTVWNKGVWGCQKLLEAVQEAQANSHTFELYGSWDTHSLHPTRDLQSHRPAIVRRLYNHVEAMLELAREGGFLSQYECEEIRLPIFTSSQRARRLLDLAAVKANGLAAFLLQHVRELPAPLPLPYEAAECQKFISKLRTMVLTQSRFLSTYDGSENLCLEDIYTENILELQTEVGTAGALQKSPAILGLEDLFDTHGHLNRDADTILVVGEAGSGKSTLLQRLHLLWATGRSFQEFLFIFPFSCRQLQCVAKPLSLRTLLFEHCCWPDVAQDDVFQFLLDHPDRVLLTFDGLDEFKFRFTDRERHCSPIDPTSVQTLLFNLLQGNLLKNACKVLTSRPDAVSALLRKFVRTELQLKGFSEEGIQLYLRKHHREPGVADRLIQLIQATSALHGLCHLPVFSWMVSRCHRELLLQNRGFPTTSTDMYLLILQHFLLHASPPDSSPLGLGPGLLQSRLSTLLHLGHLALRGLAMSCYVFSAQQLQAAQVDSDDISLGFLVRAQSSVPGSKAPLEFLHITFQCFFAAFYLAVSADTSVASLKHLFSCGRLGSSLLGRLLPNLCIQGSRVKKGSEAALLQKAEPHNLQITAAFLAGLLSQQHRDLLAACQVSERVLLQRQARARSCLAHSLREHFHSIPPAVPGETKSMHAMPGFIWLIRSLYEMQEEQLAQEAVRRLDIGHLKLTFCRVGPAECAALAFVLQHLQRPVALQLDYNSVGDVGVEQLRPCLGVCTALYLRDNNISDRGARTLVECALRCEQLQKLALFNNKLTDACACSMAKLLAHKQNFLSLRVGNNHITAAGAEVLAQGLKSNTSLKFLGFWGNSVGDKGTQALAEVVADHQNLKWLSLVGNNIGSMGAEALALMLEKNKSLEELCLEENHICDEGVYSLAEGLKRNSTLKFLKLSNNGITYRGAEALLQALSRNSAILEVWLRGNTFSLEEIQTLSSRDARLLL
structure (smiles),measurement,setting,value
"CC(=O)N[C@H]1C(O)O[C@H](CO)[C@@H](O)[C@@H]1O[C@H](C)C(=O)O (some centres unmarked) [A2, N-acetyl-muramic acid]",fluorescent signal in the gated Cy-5 channel,[1],slight fluorescence intensity
same,fluorescent labeling of cells under SIM,E. coli ΔmurQ-KU cells,couldn't detect any fluorescence
"C[C@H](NC(=O)[C@@H](C)O[C@@H]1[C@@H](N)[C@H](O)O[C@H](CO)[C@H]1O)C(=O)N[C@H](CCC(=O)O)C(N)=O [D1, (R)-5-amino-4-((S)-2-((R)-2-(((2R,3R,4R,5S,6R)-3-amino-2,5-dihydroxy-6-(hydroxymethyl)tetrahydro-2H-pyran-4-yl)oxy)propanamido)propanamido)-5-oxopentanoic acid]",stabilization of Nod2 (in words),Nod2 [2],no stabilization of Nod2; also recorded: did not stabilize; also recorded: no stabilizing effect
same,NF-κB activation (in words),Nod2 [3],did not activate NF-κB; also recorded: does not elicit an immune response via the Nod2-dependent pathway
same,NF-KB Fold Activation ± SD,Nod2 [3],No activation
CC(=O)NC1C(O)OC(CN)C(O)[C@@H]1O[C@H](C)C(=O)N[C@@H](C)C(=O)N[C@H](CCC(=O)O)C(N)=O (some centres unmarked) [6-amino-MDP],NF-κB activation in a Nod2-dependent manner (known),Nod2 [4],activate NF-κB in a Nod2-dependent manner
same,NF-KB Fold Activation ± SD,Nod2 [4]; value marked with reference 19,2.8 ± 0.1^19 Fold
same,increase of the half-life of Nod2,Nod2 [2]; versus untreated,~3 fold
"CC(=O)N[C@H]1C(O)O[C@H](CO)[C@@H](O)[C@@H]1O[C@H](C)C(=O)N[C@@H](C)C(=O)N[C@H](CCC(=O)O)C(N)=O (some centres unmarked) [D2, N-acetyl-MDP]",Kd,Nod2 [5],51 nM
same,effect on Nod2 level,mouse Nod2,led to the degradation of Nod2
same,stabilization of Nod2 (in words),Nod2 [2],capable of stabilizing Nod2
same,NF-KB Fold Activation ± SD,Nod2 [3],1.8 ± 0.3 Fold
"C[C@@H](NC(=O)[C@@H](C)OC1C(NC(=O)CO)[C@@H](O)OC(CO)[C@H]1O)C(=O)NC(CCC(=O)O)C(N)=O (some centres unmarked) [D9, N-glycolyl-MDP]",stabilization of Nod2 (in words),Nod2 [2],capable of stabilizing Nod2
same,NF-KB Fold Activation ± SD,Nod2 [3],3.1 ± 0.3 Fold
